According to patent US5679671A, “Amino acid derivative” (Eisai Co., Ltd., priority 1993, dated 1997):

Biological target: T1, vasopressin (V1) receptor (Rattus norvegicus, UniProt P30560)
T1 construct: Membrane specimens of rat liver (V1); from tissue; host or cells: rat liver membranes
Assay: V1 receptor binding assay, rat liver membrane (Experiment E-3)
Conditions: [3H]-Arg-vasopressin, pH 7.4
Procedure: Membrane specimens of rat liver (V1) and rat kidney (V2) were used. 100,000 counts (3.69 nM) of [^3 H]-Arg-vasopressin, 25 μg (1 mg protein/ml) of each membrane specimen and a test medicament (10^-7 to 10^-5 M) were incubated in a total volume of 250 μl of an assay buffer (pH=7.4) containing 10 mM of MgCl2, 2 mM of EGTA and 20 mM of HEPES at 4° C. over day and night. Then, the incubation was washed with 5-ml portions of the buffer 5 times to thereby separate the membrane specimen binding to vasopressin followed by filtration with the use of a glass filter (GF/F). This glass filter was dried for about 3 hours and mixed with a cocktail for liquid scintillation (10 ml, ACSII). After allowing to stand overnight, the amount of the [^3 H]-Arg-vasopressin binding to the membrane was determined with a liquid scintillation counter and the inhibition ratio was calculated in accordance with the following formula: […]
B1; the amount of [^3 H]-Arg-vasopressin binding to the membrane in the presence of excessive vasopressin (10 μM)
C0; the amount of [^3 H]-Arg-vasopressin binding to the membrane in the absence of the test medicament and
C1; the amount of [^3 H]-Arg-vasopressin binding to the membrane in the presence of both the test medicament in a known amount and [^3 H]-Arg-vasopressin. […]

T1 sequence (P30560 whole entry): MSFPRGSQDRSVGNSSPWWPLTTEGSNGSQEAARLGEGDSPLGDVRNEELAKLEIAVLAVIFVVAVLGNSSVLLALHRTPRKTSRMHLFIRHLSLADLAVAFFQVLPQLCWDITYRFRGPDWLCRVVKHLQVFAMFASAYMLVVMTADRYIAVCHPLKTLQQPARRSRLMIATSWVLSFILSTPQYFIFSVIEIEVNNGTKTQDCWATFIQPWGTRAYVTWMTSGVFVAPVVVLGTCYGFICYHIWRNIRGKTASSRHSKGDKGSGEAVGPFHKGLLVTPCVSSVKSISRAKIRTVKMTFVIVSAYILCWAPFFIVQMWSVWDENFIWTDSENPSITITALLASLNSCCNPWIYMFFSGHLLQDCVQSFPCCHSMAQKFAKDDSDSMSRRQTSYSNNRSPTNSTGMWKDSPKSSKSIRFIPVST

IC50: ≥ 10 µM
Compound: CC(C)[C@H](S)C(=O)N[C@H]1Cc2ccc(-c3ccccc3)cc2[C@H]2CCC[C@@H](C(=O)O)N2C1=O [Example E-10, [4S-[4α,7α(R*),12bβ]]-7-[(S)-2-Mercapto-3-methylbutyrylamino]-6-oxo-11-phenyl-1,2,3,4,6,7,8,12b-octahydropyrido[2,1-a][2]benzazepine-4-carboxylic acid]
